# From USRE37556E1, “Superoxide radical inhibitor” (Otsuka Pharmaceutical Co., Ltd., priority 1990, dated 2002)
# Where a name gives a salt, the structure may show the parent alone.
# System: human neutrophilic leukocytes
# Test: Inhibition of superoxide radical (O2-) generation in FMLP-stimulated human neutrophilic leukocytes (ferricytochrome C method)
# Assay type: cell-based
# Settings: Homo sapiens, Leukocyte, Table 16; comparative test present compounds vs prior art compounds; NE = not effective
# From the text: (1) Activity for inhibiting the generation of superoxide radical (O2^−) in human neutrophilic leukocytes
# That is, a whole blood obtained from a healthy adult and treated by anticoagulation method was subjected to a dextranhypotonic treatment to obtain leukocyte cells. The leukocyte cells were then subjected to a density gradient ultracentrifugation by Ficoll-Paque to obtain a neutrophilic leukocyte fraction.
# O2^− generation was examined by the ferricytochrome C method in accordance with the method of B. N. Cronstein et al. [Journal of Experimental Medicine, vol. […] Each test compound was dissolved in dimethyl sulfoxide (DMSO); the solution was added to neutrophilic leukocytes before the addition of FMLP; then, the neutrophilic leukocytes were pre-incubated at 37° C.
row,Structure (SMILES),IC50 [nM]
1,"CCOc1ccc(-c2nc(-c3cc(O)cc(C(=O)O)c3)cs2)cc1OCC [compound 110, 4-(3-Carboxy-5-hydroxyphenyl)-2-(3,4-diethoxyphenyl)thiazole, reference compound]",660
2,"CCCCOc1ccc(-c2nc(-c3ccc(O)c(C(=O)O)c3)cs2)cc1OCCCC [compound 111, 4-(3-Carboxy-4-hydroxyphenyl)-2-(3,4-dibutoxyphenyl)thiazole, reference compound]",8300
3,"CCOc1ccc(-c2nc(-c3cc(C(=O)O)ccc3OC)cs2)cc1OCC [compound 112, 4-(3-Carboxy-6-methoxyphenyl)-2-(3,4-diethoxyphenyl)thiazole, reference compound]",8700

# Next, values leading:
row,IC50 [nM],Structure (SMILES)
1,34,"CCOc1cc(-c2nc(-c3cc(C(=O)O)ccc3O)cs2)ccc1OC [compound 104, 4-(3-Carboxy-6-hydroxyphenyl)-2-(3-ethoxy-4-methoxy-phenyl)thiazole]"
2,1000,"COc1ccc(-c2nc(-c3ccc(O)c(C(=O)O)c3)cs2)cc1OC [compound 105, 4-(3-Carboxy-4-hydroxyphenyl)-2-(3,4-dimethoxyphenyl)thiazole, reference compound]"

# Same assay, conditions: Homo sapiens, Leukocyte, pH 7.4, Table 15; O2- generation, 3x10^-7 M FMLP, cytochalasin B, 37° C., pH 7.4
row,Structure (SMILES),IC50 [nM]
1,"CCOc1ccc(-c2nc(-c3cc(C(=O)OC)cc([N+](=O)[O-])c3O)cs2)cc1OCC [compound 101, 4-(3-Methoxycarbonyl-5-nitro-6-hydroxyphenyl)-2-(3,4-diethoxyphenyl)thiazole]",10
2,"CCOc1ccc(-c2nc(-c3cc(C(=O)OC)cc(N)c3O)cs2)cc1OCC [compound 102, 4-(3-Methoxycarbonyl-5-amino-6-hydroxyphenyl)-2-(3,4-diethoxyphenyl)thiazole]",69
3,"CCOc1ccc(-c2nc(-c3cc(C(=O)O)cc(N)c3O)cs2)cc1OCC [compound 113, 4-(2-Hydroxy-3-amino-5-carboxyphenyl)-2-(3,4-diethoxy-phenyl)thiazole hydrochloride]",25
4,"CCOc1ccc(-c2nc(-c3cccc(C(=O)O)n3)cs2)cc1OCC [compound 115, 4-(6-Carboxy-2-pyridyl)-2-(3,4-diethoxyphenyl)-thiazole]",80
5,"CCOc1ccc(-c2nc(-c3ccc(C(=O)O)[nH]3)cs2)cc1OCC [compound 119, 2-(3,4-Diethoxyphenyl)-4-(2-carboxy-5-pyrrolyl)-thiazole]",24
6,"CCOc1ccc(-c2nc(-c3ccc(C(=O)OC)o3)cs2)cc1OCC [compound 121, 2-(3,4-Diethoxyphenyl)-4-(2-methoxycarbonyl-5-furyl)thiazole]",38
7,"CCOc1ccc(-c2nc(-c3ccc(C(=O)O)o3)cs2)cc1OCC [compound 122, 2-(3,4-Diethoxyphenyl)-4-(2-carboxy-5-furyl)-thiazole]",19
8,"CCOc1ccc(-c2nc(-c3cccc(C(=O)N(C)C)n3)cs2)cc1OCC [compound 123, 2-(3,4-Diethoxyphenyl)-4-(2-dimethylaminocarbonyl-6-pyridyl)thiazole]",380
9,"CCOc1ccc(-c2nc(-c3ccc(C(=O)O)s3)cs2)cc1OCC [compound 129, 2-(3,4-Diethoxyphenyl)-4-(2-carboxy-5-thienyl)-thiazole]",82
10,"CCOc1ccc(-c2nc(-c3ccc(O)c(CO)c3)cs2)cc1OCC [compound 133, 2-(3,4-Diethoxyphenyl)-4-(4-hydroxy-3-hydroxymethylphenyl)thiazole]",9.2
11,"CCCCOC(=O)c1cc(-c2csc(-c3ccc(OCC)c(OCC)c3)n2)ccc1OCCCC [compound 136, 2-(3,4-Diethoxyphenyl)-4-(3-n-butoxycarbonyl-4-n-butoxyphenyl)thiazole]",130
12,"CCCCOc1ccc(-c2csc(-c3ccc(OCC)c(OCC)c3)n2)cc1C(=O)O [compound 137, 2-(3,4-Diethoxyphenyl)-4-(3-carboxy-4-n-butoxyphenyl)thiazole]",110
13,"CCCOc1ccc(-c2csc(-c3ccc(OCC)c(OCC)c3)n2)cc1C(=O)O [compound 138, 2-(3,4-Diethoxyphenyl)-4-(3-carboxy-4-n-propoxyphenyl)thiazole]",140
14,"CCOc1ccc(-c2nc(-c3cc4c(c(C(=O)O)c3)OC(C)(C)C4)cs2)cc1OCC [compound 139, 2-(3,4-Diethoxyphenyl)-4-(2,2-dimethyl-7-carboxy-2,3-dihydrobenzofuran-5-yl)thiazole]",100

# The next lines start with the values.
row,IC50 [nM],Structure (SMILES)
1,94,"C=CCc1cc(C(=O)O)cc(-c2csc(-c3ccc(OCC)c(OCC)c3)n2)c1O [compound 103, 4-(3-Carboxy-5-allyl-6-hydroxyphenyl)-2-(3,4-diethoxy-phenyl)thiazole]"
2,34,"CCOc1cc(-c2nc(-c3cc(C(=O)O)ccc3O)cs2)ccc1OC [compound 104, 4-(3-Carboxy-6-hydroxyphenyl)-2-(3-ethoxy-4-methoxy-phenyl)thiazole]"
3,100,"CCCc1cc(C(=O)O)cc(-c2csc(-c3ccc(OCC)c(OCC)c3)n2)c1O [compound 114, 4-(2-Hydroxy-3-propyl-5-carboxyphenyl)-2-(3,4-diethoxy-phenyl)thiazole]"
4,370,"CCOc1ccc(-c2nc(-c3ccccc3)cs2)cc1OCC [compound 116, 2-(3,4-Diethoxyphenyl)-4-phenylthiazole]"
5,460,"CCOc1ccc(-c2nc(-c3ccc(NCCN4CCCCC4)c(C(=O)OC)c3)cs2)cc1OCC [compound 117, 2-(3,4-Diethoxyphenyl)-4-{3-methoxycarbonyl-4-[2-(1-piperidinyl)ethylamino]phenyl}thiazole dihydrochloride]"
6,560,"CCOc1ccc(-c2nc(-c3ccc(O)c(C(=O)OCCN(C)C)c3)cs2)cc1OCC [compound 118, 2-(3,4-Diethoxyphenyl)-4-[4-hydroxy-3-(2-dimethylaminoethoxycarbonyl)phenyl]thiazole trihydrochloride]"
7,490,"CCCCCCCCCOC(=O)c1cc(-c2csc(-c3ccc(OCC)c(OCC)c3)n2)ccc1O [compound 120, 2-(3,4-Diethoxyphenyl)-4-(4-hydroxy-3-n-nonyloxy-carbonylphenyl)thiazole]"
8,14,"CCOc1ccc(-c2nc(-c3cc(CC)c(O)c(C(=O)O)c3)cs2)cc1OCC [compound 126, 2-(3,4-Diethoxyphenyl)-4-(3-carboxy-4-hydroxy-5-ethylphenyl)thiazole]"
9,240,"CCOc1ccc(-c2nc(-c3cc(C(=O)O)c4oc(C)cc4c3)cs2)cc1OCC [compound 130, 2-(3,4-Diethoxyphenyl)-4-(2-methyl-7-carboxy-5-benzofuryl)thiazole]"
10,190,"CCOC(=O)c1csc(-c2csc(-c3ccc(OCC)c(OCC)c3)n2)n1 [compound 131, 2-(3,4-Diethoxyphenyl)-4-(4-ethoxycarbonyl-2-thiazolyl)thiazole]"
11,50,"CCOc1ccc(-c2nc(-c3nc(C(=O)O)cs3)cs2)cc1OCC [compound 132, 2-(3,4-Diethoxyphenyl)-4-(4-carboxy-2-thiazolyl)-thiazole]"
12,130,"CCOc1ccc(-c2nc(-c3ccc(OCC)c(C(=O)O)c3)cs2)cc1OCC [compound 134, 2-(3,4-Diethoxyphenyl)-4-(4-ethoxy-3-carboxyphenyl)thiazole]"
13,35,"CCOc1ccc(-c2nc(-c3cncc(C(=O)O)c3)cs2)cc1OCC [compound 135, 2-(3,4-Diethoxyphenyl)-4-(3-carboxy-5-pyridyl)-thiazole hydrochloride]"

# Same assay, conditions: Table 15; O2- generation, 3x10^-7 M FMLP, cytochalasin B, 37° C., pH 7.4
row,IC50 [nM],Structure (SMILES)
1,190,CCOc1ccc(-c2nc(-c3ccc(OC)c(C(=O)O)c3)cs2)cc1OCC [compound 125]
2,20,CCOc1ccc(-c2nc(-c3cccc(CO)n3)cs2)cc1OCC [compound 127]
3,580,CCOc1ccc(-c2nc(-c3cccc(C(=O)N4CCN(C)CC4)n3)cs2)cc1OCC [compound 128]
